Our source for the GI50 and TGI values is PubChem BioAssay (NCI).

Some test systems named below: ACHN renal; EKVX NSCLC; HOP-62 NSCLC; IGROV1 ovarian; KM12 colon; KM20L2 colon; LXFL 529 NSCLC; M14 melanoma; MALME-3M melanoma; TK-10 renal.
What all share (assay): NCI tumour cell line growth inhibition, 48 h

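Values below derive from 48-hour exposures of cells grown in 96-well plates, with endpoints linearly interpolated between the two concentrations bracketing the appropriate inhibition level. GI50 = concentration required for 50% inhibition of growth. At the TGI there is no net growth.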

With `CC(=O)[CH-]C(C)=O.CC(=O)[CH-]C(C)=O.[CH2-]CCC.[CH2-]CCC.[Sn+4]`, the GI50 with ACHN renal is 0.487 µM; in the assay on EKVX NSCLC it was 0.901 µM; with HOP-62 NSCLC it was 2.02 µM; in the assay with IGROV1 ovarian it was 1.23 µM; with KM12 colon, 1.11 µM; in the assay on KM20L2 colon, 1.36 µM. Besides, the GI50 was 0.0493 µM in the assay with LXFL 529 NSCLC, 0.608 µM in the assay with M14 melanoma, 0.2 µM in the assay on MALME-3M melanoma and 0.423 µM in the assay on TK-10 renal. For the same compound, the TGI with ACHN renal was determined as 1.66 µM; with EKVX NSCLC, 2.27 µM; in the assay with HOP-62 NSCLC, 3.56 µM; with IGROV1 ovarian, 2.66 µM; in the assay with KM12 colon, 2.33 µM; in the assay with KM20L2 colon, 2.65 µM. Besides, the TGI in the assay with LXFL 529 NSCLC stood at 0.185 µM; in the assay with M14 melanoma, 1.86 µM; with MALME-3M melanoma, 1.07 µM; with TK-10 renal it was 1.36 µM.
`COc1ccc2c(CN3CCCCC3CO)cc3cc(OC)c(OC)cc3c2c1` (stereo not given): the TGI was 31.1 µM in the assay with ACHN renal; 19.7 µM with EKVX NSCLC; 20.7 µM in the assay with HOP-62 NSCLC; 61.1 µM in the assay with IGROV1 ovarian; 16.2 µM in the assay with KM12 colon; 15.2 µM in the assay with KM20L2 colon. The TGI turned out to be 16.8 µM in the assay on LXFL 529 NSCLC, 25 µM in the assay with M14 melanoma, 16.9 µM with MALME-3M melanoma and 27.5 µM in the assay with TK-10 renal.
On to `CN(C)CC(C)(C)/C(=N\Nc1ccccc1)c1ccccc1`, for which the TGI in the assay with ACHN renal is 48.5 µM; with EKVX NSCLC it was more than 100 µM; in the assay with HOP-62 NSCLC, more than 100 µM; with IGROV1 ovarian it was more than 100 µM; in the assay on KM12 colon it was more than 100 µM; in the assay on KM20L2 colon it was 36.7 µM. For the same compound, the TGI is 51.4 µM in the assay with LXFL 529 NSCLC, 66.5 µM with M14 melanoma, more than 100 µM in the assay on MALME-3M melanoma and 61.1 µM in the assay with TK-10 renal.
For `CCCCCC(=O)C(C)C1=Nc2nnc(CCCCCCCc3nnc4n3C(=O)C(C(C)C(=O)CCCCC)=N4)n2C1=O` (stereo not given), the TGI in the assay on ACHN renal, in the assay on EKVX NSCLC, with HOP-62 NSCLC, in the assay with IGROV1 ovarian, in the assay on KM12 colon and in the assay on KM20L2 colon was more than 100 µM each time. Moreover, the TGI in the assay on LXFL 529 NSCLC, with M14 melanoma, with MALME-3M melanoma and with TK-10 renal was more than 100 µM each time.
On to `C[N-]c1nnnn1C.[Au+].c1ccc([PH+](c2ccccc2)c2ccccc2)cc1`, for which the GI50 with ACHN renal was 4.26 µM; in the assay with EKVX NSCLC, 4.32 µM; in the assay on HOP-62 NSCLC, 7.89 µM; in the assay with IGROV1 ovarian, 2.76 µM; in the assay on KM12 colon, 7.09 µM; with KM20L2 colon it was 4.05 µM. Besides, the GI50 in the assay with LXFL 529 NSCLC is 1.37 µM; in the assay with M14 melanoma it was 2.34 µM; in the assay with MALME-3M melanoma it was 1.42 µM; with TK-10 renal it was 2.19 µM. Moreover, the TGI is 8.38 µM in the assay with ACHN renal; 8.99 µM in the assay on EKVX NSCLC; 16.8 µM in the assay with HOP-62 NSCLC; 9.99 µM with IGROV1 ovarian; 28.6 µM with KM12 colon; 10.3 µM in the assay with KM20L2 colon. Further, the TGI in the assay with LXFL 529 NSCLC turned out to be 2.83 µM; with M14 melanoma it was 5.51 µM; with MALME-3M melanoma it was 2.91 µM; in the assay on TK-10 renal, 4.42 µM.
Regarding `C=C1C(=O)O[C@@H]2C[C@@H](C)[C@@H]3C=CC(=O)[C@@]3(C)[C@@H](OC(=O)CC(=O)O[C@H]3[C@@H]4C(=C)C(=O)O[C@@H]4C[C@@H](C)[C@@H]4C=CC(=O)[C@]43C)[C@H]12`, the TGI was found to be 0.189 µM in the assay with ACHN renal; 0.32 µM with EKVX NSCLC; 1.18 µM with HOP-62 NSCLC; 0.595 µM in the assay on IGROV1 ovarian; 0.16 µM in the assay with KM12 colon; 0.237 µM with KM20L2 colon. In addition, the TGI in the assay with LXFL 529 NSCLC worked out at 0.0343 µM; with M14 melanoma, 0.0845 µM; with MALME-3M melanoma, 0.0368 µM; in the assay with TK-10 renal, 0.47 µM.
`Cc1cc2c(ccc3c(C)cc(=O)oc32)o1`: the TGI in the assay with ACHN renal, with EKVX NSCLC, in the assay on HOP-62 NSCLC, in the assay on IGROV1 ovarian, in the assay with KM12 colon and in the assay with KM20L2 colon was more than 100 µM throughout. Moreover, the TGI in the assay on LXFL 529 NSCLC, in the assay on M14 melanoma, in the assay on MALME-3M melanoma and with TK-10 renal was more than 100 µM throughout.
For the compound `CCC[CH2][Sn]1([CH2]CCC)[O]CC(Cc2ccccc2)[O]1` (stereo not given), the GI50 was 2.22 µM with ACHN renal; 2.39 µM in the assay with EKVX NSCLC; 4.04 µM with HOP-62 NSCLC; 3.8 µM with IGROV1 ovarian; 3.77 µM in the assay on KM12 colon; 5.33 µM in the assay on KM20L2 colon. For the same compound, the GI50 is 1.15 µM with LXFL 529 NSCLC, 2.3 µM in the assay on M14 melanoma, 0.941 µM in the assay on MALME-3M melanoma and 2.64 µM with TK-10 renal. The TGI was determined as 4.39 µM in the assay with ACHN renal; 8.77 µM with EKVX NSCLC; 19.4 µM with HOP-62 NSCLC; 13.8 µM in the assay with IGROV1 ovarian; 14.4 µM in the assay with KM12 colon; 18.2 µM in the assay on KM20L2 colon. The TGI in the assay with LXFL 529 NSCLC turned out to be 2.39 µM; in the assay on M14 melanoma, 5.51 µM; with MALME-3M melanoma, 3.51 µM; in the assay with TK-10 renal, 7.27 µM.
Turning to `CN(C)CC(C)(C)C(=O)/C=C/c1ccc(/C=C/C(=O)C(C)(C)CN(C)C)cc1`, the TGI with ACHN renal was found to be 2.84 µM; in the assay on EKVX NSCLC, 3.26 µM; with HOP-62 NSCLC, 4.51 µM; in the assay on IGROV1 ovarian it was 3.33 µM; in the assay on KM12 colon, 3.25 µM; in the assay on KM20L2 colon it was 2.35 µM. Also, the TGI in the assay on LXFL 529 NSCLC amounted to 2.4 µM; with M14 melanoma, 3.21 µM; in the assay on MALME-3M melanoma, 3.97 µM; with TK-10 renal it was 3.03 µM.
Regarding `COc1ccc(OC)c2c1CC(C(=O)O)(C(=O)O)CC2=O`, the TGI with ACHN renal, in the assay with EKVX NSCLC, in the assay with HOP-62 NSCLC, in the assay with IGROV1 ovarian, in the assay with KM12 colon and in the assay with KM20L2 colon was more than 100 µM in each case. Further, the TGI with LXFL 529 NSCLC, with M14 melanoma, in the assay with MALME-3M melanoma and with TK-10 renal was more than 100 µM each time.
For the compound `Cc1ccc(NC(=O)C2C(=O)N(c3ccc(C)cc3)C(=O)/C2=N\NC(N)=S)cc1` (stereo not given), the TGI with ACHN renal, in the assay with EKVX NSCLC, in the assay on HOP-62 NSCLC, in the assay on IGROV1 ovarian, in the assay on KM12 colon and with KM20L2 colon was more than 100 µM in each case. The TGI in the assay on LXFL 529 NSCLC, in the assay on M14 melanoma, with MALME-3M melanoma and in the assay on TK-10 renal was more than 100 µM each time.
